Laboratory results: patent US8993604B2, “Treatment and prevention of dengue virus infections” (Siga Technologies, Inc., priority 2009, dated 2015)
Read-outs that look alike come from different tables or passages of the source.

Assays:
[1] = system: Dengue-2 (Strain New Guinea C); assay: Viral yield assay in Vero cells; type: cell-based; settings: Dengue virus, read-out: Activity (anti-dengue 2 viral activity, EC50 class)
Procedure, shortened: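 Vero cells were infected with dengue virus at an MOI of 0.1, treated with compound or DMSO vehicle, and kept at 37° C. Supernatant virus was harvested 48 hours post infection and titered on Vero cells, with EC50 derived from yield reduction.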

[2] = system: all four serotypes of dengue; assay: Yield assays against each of the four serotypes of dengue; type: cell-based, dengue virus; settings: yield assays at several drug concentrations
Protocol: Initially, the chemical structures of the hit compounds were examined for chemical tractability. […] Hits that passed this medicinal chemistry filter were evaluated for their potency. Compound potency was determined by evaluating inhibitory activity across a broad range of concentrations. Nonlinear regression was used to generate best-fit inhibition curves and to calculate the 50% effective concentration (EC50). The selectivity or specificity of a given compound is typically expressed as a ratio of its cytotoxicity to its biological effect. A cell proliferation assay is used to calculate a 50% cytotoxicity concentration (CC50); the ratio of this value to the EC50 is referred to as the therapeutic index (T.I.=CC50/EC50). Two types of assays have been used to determine cytotoxicity, both of which are standard methods for quantitating the reductase activity produced in metabolically active cells (22). […] Verification that these compounds act against each of the four serotypes of dengue was done with yield assays carried out at several drug concentrations, and the titer determined for each.
Compounds that were active in the primary screen were tested for activity in viral yield assays. […] The EC50 was calculated through ExcelFit. Activities against other serotypes of dengue virus were determined in a similar way.

dengue [3] = settings: cited from earlier work
dengue [4] = settings: mouse model; cited from earlier work
[5] = Vero cells, MOI 0.1, harvested 48 hours post infection

SMILES	EC50 [1, 5]	EC50 ([1]; Vero, 48 h)	further results
COc1ccc(C(=O)Nc2ccc(-c3nc4ccc(C)cc4s3)cc2)c(OC)c1 [Compound 3, 2,4-Dimethoxy-N-[4-(6-methyl-benzothiazol-2-yl)-phenyl]-benzamide]	< 1 µM		activity against all four serotypes of dengue [2]: activity against all four serotypes of dengue
Cc1ccc(-c2nc3ccccc3s2)cc1NC(=O)c1ccc2c(c1)OCO2 [Compound 121, Benzo[1,3]dioxole-5-carboxylic acid (5-benzothiazol-2-yl-2-methyl-phenyl)-amide]		> 25 µM	
Cc1cc(C)cc(C(=O)Nc2cc(-c3nc4ccccc4s3)ccc2Cl)c1 [Compound 122, N-(5-Benzothiazol-2-yl-2-chloro-phenyl)-3,5-dimethyl-benzamide]	> 25 µM		
O=C(Nc1ccc(-c2nc3ccccc3s2)c(Cl)c1)c1ccc(F)cc1 [Compound 123, N-(4-Benzothiazol-2-yl-3-chloro-phenyl)-4-fluoro-benzamide]	> 25 µM		
O=C(Nc1ccc(-c2nc3ccccc3s2)c(Cl)c1)c1ccccc1[N+](=O)[O-] [Compound 124, N-(4-Benzothiazol-2-yl-3-chloro-phenyl)-2-nitro-benzamide]	> 25 µM		
Cc1c(NC(=O)c2cc(-n3cnnc3)ccc2Cl)cccc1-c1nc2ccccc2s1 [Compound 125, N-(3-Benzothiazol-2-yl-2-methyl-phenyl)-2-chloro-5-[1,2,4]triazol-4-yl-benzamide]		> 25 µM	
Cc1ccc2nc(-c3ccc(NC(=O)c4ccccc4C(=O)O)cc3)sc2c1 [Compound 126, N-[4-(6-Methyl-benzothiazol-2-yl)-phenyl]-phthalamic acid]		> 25 µM	
NC(=O)c1ncn([C@@H]2O[C@H](CO)[C@@H](O)[C@H]2O)n1 [ribavirin]			adverse effects induced (dengue [3]; animal models of refs. 14, 16, model not specified): induced anemia and thrombocytosis; protection against dengue (dengue [3]; rhesus monkey model): did not show protection; protection against dengue (dengue [4]): did not show protection
